Data on one substance can be found in publication PMC3797685, “Enhanced Production, Purification, Characterization and Mechanism of Action of Salivaricin 9 Lantibiotic Produced by Streptococcus salivarius NU10” (PLoS ONE, 2013).

The subject of test [1] is S. salivarius strain NU10. The test can be described thus: Salivaricin induction assay, strain NU10. The settings on record: 0.05 ml test sample (titre 4 AU/ml) added to washed cells in M17YESUCa, 18 h anaerobic; well diffusion assay, induced vs control tube. Format: cell-based, Streptococcus salivarius. The source says: (§1) The bacteriocin-inducing activities present in crude extracts of S. salivarius strains NU10, YU10, K12 and in FPLC-purified salivaricin 9 peptide fractions having anti-Micrococcus luteus activity was investigated in this study. The crude extracts of producer cells designated as BLIS-NU10, BLIS-YU10 and BLIS-K12 were isolated by acidic methanol extraction of the producer cells as described previously. These crude BLIS extracts had the potential to contain at least two lantibiotics on the basis of PCR assessment for their content of lantibiotic structural genes. Strains NU10 and YU10 had the structural genes for salivaricin 9 and salivaricin A and strain K12 had salivaricin A and salivaricin B structural genes. […] Colonies from an 18 h culture of each S. salivarius strain NU10, YU10 and K12 grown anaerobically on BACa agar was used to inoculate 10 ml of M17YESUCa broth and incubated again under the same conditions. The cells were then collected by centrifugation at 18000 x g for 5 min and washed three times in saline buffer to reduce the levels of cell surface-associated lantibiotic before suspending in 10 ml of the same buffer. […] Induction of salivaricin 9 or salivaricin A production was recorded as inhibitory zones surrounding samples from the induced tubes but not the control tubes. […]

Test [2] concerns S. salivarius strain YU10. The experiment in a line: Salivaricin induction assay, strain YU10. The settings on record: 0.05 ml test sample (titre 4 AU/ml) added to washed cells in M17YESUCa, 18 h anaerobic; well diffusion assay, induced vs control tube. Format: cell-based, Streptococcus salivarius.
Text: as §1

In a further test the test system is S. salivarius strain K12. The test can be described thus: Salivaricin induction assay, strain K12. The format is cell-based, Streptococcus salivarius. The settings on record: 0.05 ml test sample (titre 4 AU/ml) added to washed cells in M17YESUCa, 18 h anaerobic; well diffusion assay, induced vs control tube.
Text: as §1

Test [3] concerns Lactococcus lactis strain ATCC11454. The experiment in a line: Induction assay, nisin-producing strain ATCC11454. The conditions noted are these: 0.05 ml test sample, 18 h, well diffusion assay. The format is cell-based.
Test [4] relates to Micrococcus luteus ATCC10240. The experiment in a line: Flow cytometry analysis of membrane disruption (propidium iodide). Format: cell-based. The settings on record: 20 µg/ml; PI 25 µM; 30 minutes at 37°C; triplicate. As to the method:
For membrane integrity assay using the dye propidium iodide (PI), cultures of Micrococcus luteus ATCC10240 were grown over night at 37°C in THB supplemented with 0.5% glucose (THBG) and then diluted with fresh THBG to an OD600 of 0.1. The cells were centrifuged at 4000 x g for 5 minutes at 4°C and washed twice with washing buffer (2 mM HEPES + 2 mM glucose) before re-suspending in the same buffer and adjusting to OD600 0.1. The cells were exposed to salivaricin 9 (12, 20 µg/ml) or nisin (20 µg/ml) (Sigma) and PI (final concentration 25 µM) before incubating for 30 minutes at 37°C. Nuclease-Free Water (Promega, USA) was added instead of antibiotic and served as a negative control. Samples were analyzed using BD FACSCanto^TM II flow cytometer using excitation at 488 nm and with the standard filter setup. Each sample was examined in triplicate and the geometric mean fluorescence intensity (MFI) of gated cell populations was calculated (Figure 9).

Turning to “Nisin: pore forming lantibiotic (Sigma), produced by Lactococcus lactis (ITSISLCTPGCKTGALMGCNMKTATCHCSIHVSK; not fully specified; Lantibiotic nisin-A; UniProt P13068 24-57, looked up) [reference compound]”, in test [1], the “Preparation induces inhibitor production in NU10” value was “No”. Also, the “Preparation induces inhibitor production in YU10” value in test [2] is “No”. Moreover, the “Preparation induces inhibitor production in K12” value in the test on S. salivarius strain K12 is listed as “No”. The “Preparation induces inhibitor production in ATCC11454” value in test [3] was “Yes”. Further, the “Propidium iodide uptake, geometric mean fluorescence intensity (MFI)” value in test [4] is on record as “large increase”.
